Measurements reported in US20260103465A1, “GLYCOGEN SYNTHASE KINASE 3 INHIBITORS AND USES THEREOF” (The Broad Institute, Inc., priority 2023, published 2026).
Like-named read-outs stand apart in the source and are kept apart here.

Legend:
[1] = molecular target: T1, GSK3b (GST-full length GSK3b) (Homo sapiens, UniProt P49841); test: GSK3b TR-FRET kinase inhibition assay; format: biochemical
T1 construct: GST-full length GSK3b: [SignalChem G08-9G]; purchased SignalChem G08-9G
Experimental: (§1) TR-FRET assay was performed in a white, 384 well, low volume, flat bottom plate (Grenier). After a 30 minute preincubation in assay buffer with the indicated concentration of compound, the kinase activity was initiated by the addition of the substrates. 1 nM GSK3a (GST-full length GSK3a [SignalChem G08-10G]) or 1 nM GSK3b (GST-full length GSK3b: [SignalChem G08-9G]) were then incubated at ambient temperature for 100 minutes in 10 μl of 50 mM Tris, pH 7.5, 20 mM MgCl2, 0.05 mM DTT, 100 μg/ml BSA and 1% DMSO, with 200 nM biotinylated peptide substrate (biotinylated and S645 phosphorylated glycogen synthase 631-650) and ATP (e.g., at 2 μM, 4 μM, 10 μM, 100 μM, or 1 mM). The kinase activity was quenched with 2 μl of 250 mM EDTA. A 10 μl volume of 40 nM Strepavidin-d2, 2 nM […] antibody in TR-FRET Detection Buffer (Invitrogen) was then added. After 60 min at room temperature the plate was read on Envision plate reader using Ex: 340 nm, Em: 615 nm and […]. The normalized 665/615 Signal ratio versus log compound concentration was analyzed by XLFIT to yield IC50 values.

[2] = molecular target: T2, GSK3a (GST-full length GSK3a) (Homo sapiens, UniProt P49840); test: GSK3a TR-FRET kinase inhibition assay; format: biochemical
T2 construct: GST-full length GSK3a [SignalChem G08-10G]; purchased SignalChem G08-10G
T2 sequence (P49840 whole entry): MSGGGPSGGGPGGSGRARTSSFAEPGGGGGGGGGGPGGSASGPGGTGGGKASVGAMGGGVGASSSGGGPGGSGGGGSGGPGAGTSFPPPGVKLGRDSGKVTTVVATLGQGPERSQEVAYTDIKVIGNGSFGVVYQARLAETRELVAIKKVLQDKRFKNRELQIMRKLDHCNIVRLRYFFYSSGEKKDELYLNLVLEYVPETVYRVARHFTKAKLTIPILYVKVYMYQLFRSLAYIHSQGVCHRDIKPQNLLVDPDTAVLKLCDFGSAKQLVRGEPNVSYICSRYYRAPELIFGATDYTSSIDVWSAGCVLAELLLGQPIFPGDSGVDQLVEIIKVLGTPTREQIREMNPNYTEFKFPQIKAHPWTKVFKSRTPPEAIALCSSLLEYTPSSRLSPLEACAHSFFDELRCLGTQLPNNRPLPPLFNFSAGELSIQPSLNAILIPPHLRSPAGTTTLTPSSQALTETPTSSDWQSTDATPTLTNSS
Experimental: as §1

[3] = 1 mM ATP, Table 5, read-out: GSK3β TR-FRET 1 mM ATP Average IC50
[4] = 1 mM ATP, Table 5, read-out: GSK3α TR-FRET 1 mM ATP Average IC50
[5] = 1 mM ATP, Table 3, read-out: GSK3b TR-FRET 1 mM ATP Average IC50
[6] = 1 mM ATP, Table 3, read-out: GSK3a TR-FRET 1 mM ATP Average IC50
[7] = 100 μM ATP, read-out: GSK3b 100 μM ATP Average IC50
[8] = 100 μM ATP, read-out: GSK3a 100 μM ATP Average IC50
[9] = 2 μM ATP, read-out: GSK3β TR-FRET 2 μM ATP GMean IC50
[10] = 4 μM ATP, read-out: GSK3α TR-FRET 4 μM ATP GMean IC50
[11] = 10 μM ATP, read-out: GSK3b 10 μM ATP Average IC50
[12] = 10 μM ATP, read-out: GSK3a 10 μM ATP Average IC50

T1 sequence (P49841 whole entry): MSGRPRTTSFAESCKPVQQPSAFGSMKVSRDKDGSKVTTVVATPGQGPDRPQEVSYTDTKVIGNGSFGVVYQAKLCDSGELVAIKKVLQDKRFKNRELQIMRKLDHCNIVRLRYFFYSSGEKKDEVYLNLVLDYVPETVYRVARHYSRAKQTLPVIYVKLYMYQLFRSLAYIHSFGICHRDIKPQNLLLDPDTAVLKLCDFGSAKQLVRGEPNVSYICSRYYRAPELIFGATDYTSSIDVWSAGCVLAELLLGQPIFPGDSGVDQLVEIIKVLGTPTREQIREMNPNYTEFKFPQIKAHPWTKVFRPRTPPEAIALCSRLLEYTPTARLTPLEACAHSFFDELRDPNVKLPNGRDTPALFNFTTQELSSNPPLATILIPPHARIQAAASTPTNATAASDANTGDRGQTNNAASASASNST

CC1(C)CC(=O)C2=C(C1)Nc1ncc(C#N)c(C#N)c1C2(C)c1ccccc1 (single isomer, unassigned) [605A]
IC50 [1, 3]: 0.1 to 1 µM
IC50 [2, 4]: 0.1 to 1 µM

CC1(C)CC(=O)C2=C(C1)Nc1ncc(Br)c(F)c1C2(C)c1ccccc1 (single isomer, unassigned) [Compound 140B]
IC50 [1, 5]: 5 to 20 µM
IC50 [2, 6]: 5 to 20 µM

CC1(C)CC(=O)C2=C(C1)Nc1ncc(C3CC3)cc1C2(C)c1ccccc1 (single isomer, unassigned) [Compound 117A]
IC50 [1, 7]: 0.1 to 1 µM
IC50 [1, 5]: 1 to 5 µM
IC50 [2, 8]: 0.1 to 1 µM
IC50 [2, 6]: 5 to 20 µM

CCC1(c2cccc(-c3ccncc3C)c2)C2=C(CC(C)(C)CC2=O)Nc2ncc(F)cc21 (single isomer, unassigned) [Compound 1031A]
IC50 [1, 9]: 0.1 to 1 µM
IC50 [2, 10]: 0.1 to 1 µM

CC1(C)CC(=O)C2=C(C1)Nc1ncc(F)c(C#N)c1C2(C)c1cccc(S(C)(=O)=O)c1 (single isomer, unassigned) [Compound 148B]
IC50 [1, 5]: 5 to 20 µM
IC50 [2, 6]: 5 to 20 µM

CC1(C)CC(=O)C2=C(C1)Nc1ncc(C(F)(F)F)c(Cl)c1C2(C)c1ccccc1 (single isomer, unassigned) [Compound 141A]
IC50 [1, 5]: 1 to 5 µM
IC50 [2, 6]: 5 to 20 µM

CCC1(c2cccc(-c3ccnc4c3CCCC4)c2)C2=C(CC(C)(C)CC2=O)Nc2ncc(F)cc21 (single isomer, unassigned) [Compound 165A]
IC50 [1, 9]: > 5 µM
IC50 [1, 11]: ≤ 0.1 µM
IC50 [1, 7]: ≤ 0.1 µM
IC50 [1, 5]: 0.1 to 1 µM
IC50 [2, 10]: 1 to 5 µM
IC50 [2, 12]: ≤ 0.1 µM
IC50 [2, 8]: ≤ 0.1 µM
IC50 [2, 6]: 0.1 to 1 µM

Cc1c(F)cnc2c1C(C)(c1cccc(S(C)(=O)=O)c1)C1=C(CC(C)(C)CC1=O)N2 (single isomer, unassigned) [Compound 144B]
IC50 [1, 5]: 5 to 20 µM
IC50 [2, 6]: 5 to 20 µM

CC1(C)CC2=C(C(=O)N1)C(C)(c1ccccc1)c1c(ncc(F)c1C#N)N2 (single isomer, unassigned) [604B]
IC50 [1, 3]: ≤ 0.1 µM
IC50 [2, 4]: ≤ 0.1 µM

CCC1(c2cccc(-c3cn(C)nc3C)c2)C2=C(CC(C)(C)CC2=O)Nc2ncc(F)cc21 (single isomer, unassigned) [Compound 1032A]
IC50 [1, 9]: 0.1 to 1 µM
IC50 [2, 10]: ≤ 0.1 µM

Cn1ncc2c3c(ncc21)NC1=C(C(=O)CC(C)(C)C1)C3(C)c1cccc(S(C)(=O)=O)c1 (single isomer, unassigned) [649B]
IC50 [1, 3]: 5 to 20 µM
IC50 [2, 4]: 5 to 20 µM

CC1(C)CC(=O)C2=C(Nc3ncc(F)c(C#N)c3[C@]2(C)c2ccccc2)[C@@H]1F (single isomer, unassigned) [Compound 617C]
IC50 [1, 3]: 5 to 20 µM
IC50 [2, 4]: 5 to 20 µM

CC1(C)CC(=O)C2=C(C1)Nc1ncc(F)c(C#N)c1C2(C)c1cccc(-c2ccncc2CC(F)(F)F)c1 (single isomer, unassigned) [656B]
IC50 [1, 3]: ≤ 0.1 µM
IC50 [2, 4]: ≤ 0.1 µM

CC(C)Oc1cccc(C2(C)C3=C(CC(C)(C)CC3=O)Nc3ncc(C(F)(F)F)cc32)c1 (single isomer, unassigned) [648A]
IC50 [1, 3]: 1 to 5 µM
IC50 [2, 4]: 5 to 20 µM

CC(C)Oc1cccc(C2(C)C3=C(CC(C)(C)CC3=O)Nc3ncc4c(cnn4C)c32)c1 (single isomer, unassigned) [645B]
IC50 [1, 3]: 1 to 5 µM
IC50 [2, 4]: 5 to 20 µM

CC(C)n1cncc1-c1cccc(C2(C)C3=C(CC(C)(C)CC3=O)Nc3ncc(C(F)(F)F)cc32)c1 (single isomer, unassigned) [Compound 171B]
IC50 [1, 5]: 0.1 to 1 µM
IC50 [2, 6]: 1 to 5 µM

CC1(C)CC(=O)C2=C(C1)Nc1ncccc1C2(C)c1ccccc1 (single isomer, unassigned) [Compound 101B]
IC50 [1, 11]: 1 to 5 µM
IC50 [1, 7]: 20 to 60 µM
IC50 [2, 12]: 5 to 20 µM
IC50 [2, 8]: 20 to 60 µM

CC(C)Oc1cccc(C2(C)C3=C(CC(C)(C)CC3=O)Nc3ncc(C(F)F)c(C#N)c32)c1 (single isomer, unassigned) [650B]
IC50 [1, 3]: 0.1 to 1 µM
IC50 [2, 4]: 0.1 to 1 µM

CC(C)Oc1cccc(C2(C)C3=C(CC(C)(C)CC3=O)Nc3ncc(C(F)(F)F)cc32)c1 (single isomer, unassigned) [648B]
IC50 [1, 3]: 0.1 to 1 µM
IC50 [2, 4]: 1 to 5 µM

CC1(C)CC(=O)C2=C(C1)Nc1ncc(I)c(Br)c1C2(C)c1ccccc1 (single isomer, unassigned) [657A]
IC50 [1, 3]: 5 to 20 µM
IC50 [2, 4]: 5 to 20 µM

CC1(C)CC(=O)C2=C(C1)Nc1ncc(F)c(C3CC3)c1C2(C)c1cccc(S(C)(=O)=O)c1 (single isomer, unassigned) [Compound 153A]
IC50 [1, 5]: ≤ 0.1 µM
IC50 [2, 6]: ≤ 0.1 µM

CC1(C)CC(=O)C2=C(C1)Nc1ncc(Br)c(Cl)c1C2(C)c1ccccc1 (single isomer, unassigned) [Compound 145B]
IC50 [1, 5]: 5 to 20 µM
IC50 [2, 6]: 5 to 20 µM

COc1cnc2c(c1C1CC1)C(C)(c1ccccc1)C1=C(CC(C)(C)CC1=O)N2 (single isomer, unassigned) [626B]
IC50 [1, 3]: 1 to 5 µM
IC50 [2, 4]: 5 to 20 µM

C=Cc1cnc2c(c1Br)C(C)(c1ccccc1)C1=C(CC(C)(C)CC1=O)N2 (single isomer, unassigned) [640A]
IC50 [1, 3]: 5 to 20 µM

CC1(C)CC(=O)C2=C(C1)Nc1ncccc1C2(C)c1cccc(-c2ccncc2)c1 (single isomer, unassigned) [Compound 131B]
IC50 [1, 5]: 1 to 5 µM
IC50 [2, 6]: 1 to 5 µM

Cc1nn(C)c(C)c1-c1cccc(C2(C)C3=C(CC(C)(C)CC3=O)Nc3ncc(C(F)(F)F)cc32)c1 (single isomer, unassigned) [Compound 170A]
IC50 [1, 5]: 1 to 5 µM
IC50 [2, 6]: 1 to 5 µM

CC1(C)CC(=O)C2=C(C1)Nc1nccc(C(F)(F)F)c1C2(C)c1ccccc1 (single isomer, unassigned) [Compound 127B]
IC50 [1, 5]: 5 to 20 µM
IC50 [2, 6]: 5 to 20 µM

CCC1(c2cccc(-c3ccnn3C)c2)C2=C(CC(C)(C)CC2=O)Nc2ncc(F)cc21 (single isomer, unassigned) [Compound 1025B]
IC50 [1, 9]: > 5 µM
IC50 [2, 10]: 0.1 to 1 µM

CC1(C)CC(=O)C2=C(C1)Nc1ncccc1C2(C)c1cccc(N(CC2CC2)c2ncccn2)c1 (single isomer, unassigned) [652A]
IC50 [1, 3]: 5 to 20 µM
IC50 [2, 4]: 5 to 20 µM

C=Cc1cnc2c(c1C#N)C(C)(c1ccccc1)C1=C(CC(C)(C)CC1=O)N2 (single isomer, unassigned) [607B]
IC50 [1, 3]: 5 to 20 µM
IC50 [2, 4]: 5 to 20 µM

CC(=O)c1cnc2c(c1C#N)C(C)(c1ccccc1)C1=C(CC(C)(C)CC1=O)N2 (single isomer, unassigned) [621B]
IC50 [1, 3]: 5 to 20 µM

COc1cnc2c(c1)C(C)(c1ccccc1)C1=C(CC(C)(C)CC1=O)N2 (single isomer, unassigned) [602B]
IC50 [1, 3]: 5 to 20 µM

CC1(C)CC(=O)C2=C(C1)Nc1ncc3c(c1C2(C)c1ccccc1)CCC3 (single isomer, unassigned) [Compound 118A]
IC50 [1, 5]: 5 to 20 µM

CC1(C)CC(=O)C2=C(C1)Nc1ncc(F)c(F)c1C2(C)c1ccccc1 (single isomer, unassigned) [Compound 116A]
IC50 [2, 6]: 5 to 20 µM

COc1cnc2c(c1C#N)C(C)(c1ccccc1)C1=C(CC(C)(C)CC1=O)N2 (single isomer, unassigned) [612A]
IC50 [1, 3]: 5 to 20 µM

CC1(C)CC(=O)C2=C(C1)Nc1ncc(F)cc1C2(C)c1ccccc1 (single isomer, unassigned) [Compound 107A]
IC50 [1, 5]: 5 to 20 µM

CC1(C)CC(=O)C2=C(C1)Nc1nccc(C#N)c1C2(C)c1ccccc1 (single isomer, unassigned) [Compound 108B]
IC50 [2, 6]: 5 to 20 µM

CC1(C)CC2=C(C(=O)N1)C(C)(c1cccc(S(C)(=O)=O)c1)c1cccnc1N2 (single isomer, unassigned) [630B]
IC50 [2, 4]: 5 to 20 µM

CC1(C)CC2=C(C(=O)N1)C(C)(c1ccccc1)c1cc(C(F)(F)F)cnc1N2 (single isomer, unassigned) [625B]
IC50 [2, 4]: 5 to 20 µM

Cc1c(C2(C)C3=C(CC(C)(C)CC3=O)Nc3ncc(F)cc32)cccc1S(C)(=O)=O (single isomer, unassigned) [643B]
IC50 [2, 4]: 5 to 20 µM

CC1(C)CC(=O)C2=C(C1)Nc1nccc(F)c1C2(C)c1ccccc1 (single isomer, unassigned) [Compound 105A]
IC50 [1, 5]: 5 to 20 µM

CC(C)c1cnc2c(c1C#N)C(C)(c1ccccc1)C1=C(CC(C)(C)CC1=O)N2 (single isomer, unassigned) [622A]
IC50 [1, 3]: 5 to 20 µM

CC(C)Oc1cccc(C2(C)C3=C(CC(C)(C)CC3=O)Nc3ncc(F)cc32)c1 (single isomer, unassigned) [629A]
IC50 [1, 3]: 5 to 20 µM

CC1(C)CC(=O)C2=C(C1)Nc1ncc(F)cc1C2(C)c1cccc(C(F)F)c1 (single isomer, unassigned) [623A]
IC50 [2, 4]: 5 to 20 µM
